This passage reports Binding % results from US11059819B2, “Fused hetero-hetero bicyclic compounds and methods of use thereof” (Araxes Pharma LLC, priority 2017, dated 2021).

This assay has as its target T1, KRAS G12C 1-169, his-tagged protein, GDP-loaded (Homo sapiens, UniProt P01116, G12C).
T1 construct: KRAS G12C 1-169, his-tagged protein, GDP-loaded
Description: Biochemical assay: covalent modification of KRAS G12C measured by mass spectrometry (RapidFire/TOF or Q-Exactive). Type of assay: binding. As to conditions: compound concentration and incubation time not given. The protocol: Test compounds are prepared as 10 mM stock solutions in DMSO (Fisher cat #BP-231-100). KRAS G12C 1-169, his-tagged protein, GDP-loaded is diluted to 2 μM or 0.5 μM in buffer (20 mM Hepes, 150 mM NaCl, 1 mM MgCl2). Compounds are tested for activity as follows:
Compounds are diluted to 50× final test concentration in DMSO in 96-well storage plates. Compound stock solutions are vortexed before use and observed carefully for any sign of precipitation. Dilutions are as follow: • For 100 μM final compound concentration, compounds are diluted to 5000 μM (5 μL 10 mM compound stock+5 μL DMSO and mixed well by pipetting. • For 30 μM final compound concentration, compounds are diluted to 1500 μM (3 μI, 10 mM compound stock+17 μL DMSO) and mixed well by pipetting. • For 10 μM final compound concentration, compounds are diluted to 500 μM (2 μL 10 mM compound stock+38 μL DMSO) and mixed well by pipetting. 49 μL of the stock protein solution is added to each well of a 96-well PCR plate (Fisher cat #1423027). 1 μl of the diluted 50× compounds are added to appropriate wells in the PCR plate using 12-channel pipettor. Reactions are mixed carefully and thoroughly by pipetting up/down with a 200 μL multi-channel pipettor. […] The plate is then resealed with aluminum seal and stored on dry ice until analyzed as described below.
The above described assays are analyzed by mass spectrometry according to one of the following two procedures: […]
After another 30 minute equilibration time, a blank batch (i.e., buffer) is run to ensure equipment is operating properly. […] The method is then run and masses of each individual well recorded. […]
The masses and peak intensities of KRAS G12C protein species are measured using a Dionex RSLCnano system (Thermo Scientific) connected to a Q Exactive Plus mass spectrometer (Thermo Scientific). […]
The mass spectrometer is operated in profile mode at a resolution of 17500, 5 microscans, using 50 msec max injection time and an AGC target of 1×10^6, and a full mass range from 800-1850 m/z is recorded. […]

SMILES strings stand for the structures.

T1 sequence (P01116 1-169 isoform P01116-2 G12C): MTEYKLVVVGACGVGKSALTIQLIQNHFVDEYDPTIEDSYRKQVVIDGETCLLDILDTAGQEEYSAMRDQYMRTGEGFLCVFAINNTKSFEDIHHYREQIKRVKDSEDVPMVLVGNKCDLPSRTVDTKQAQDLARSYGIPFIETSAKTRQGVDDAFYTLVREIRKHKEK

Take `C=CC(=O)N1CC(n2cnc3c(Nc4c(C)ccc5cn[nH]c45)cncc3c2=O)C1` [Compound 55, 3-(1-acryloylazetidin-3-yl)-8-((6-methyl-1H-indazol-7-yl)amino)pyrido[4,3-d]pyrimidin-4(3H)-one]: the Binding % result is listed as “+ (+ indicates binding activity up to 5%)”.

As for `C=CC(=O)N1CC(n2cc(C)c3cncc(Nc4c(C)ccc5[nH]ncc45)c3c2=O)C1` [Compound 57, 2-(1-acryloylazetidin-3-yl)-4-methyl-8-((5-methyl-1H-indazol-4-yl)amino)-2,6-naphthyridin-1(2H)-one], the Binding % entry is “+ (+ indicates binding activity up to 5%)”.

With `C=CC(=O)N1CC(n2cnc3c(Nc4cc(O)cc5ccccc45)cncc3c2=O)C1` [Compound 56, 3-(1-acryloylazetidin-3-yl)-8-((3-hydroxynaphthalen-1-yl)amino)pyrido[4,3-d]pyrimidin-4(3H)-one], the Binding % entry is given as “+ (+ indicates binding activity up to 5%)”.
